Patent publication US20100222304A1, “Methods of Treating Neuropathic Pain by Modulation of Glycogenolysis or Glycolysis” (priority 2006, published 2010)
Like-named read-outs stand apart in the source and are kept apart here.

Tests used:
Tet/GSK-3-beta mice = conditions: cited from earlier work; for tau phosphorylation in the hippocampus: oral, 3 weeks, NP-01139 50 to 100 mg/kg/day, NP-12 100 to 200 mg/kg/day; for clinical signs: prolonged oral treatment
[1] = test system: Zucker diabetic fatty (ZDF) rats; conditions: cited from earlier work; for glucose tolerance: CS-917 300 mg/kg and/or glyburide 100 mg/kg orally, 90 min before 2 g/kg glucose, 3 h following; for insulin secretion: CS-917 300 mg/kg, glyburide 100 mg/kg orally
[2] = rats; cited from earlier work
db/db mice [3] = conditions: 60 mg/kg po qd, 9 days; cited from earlier work
Male Sprague-Dawley rats = test: Mechanical allodynia induced by spinal nerve ligation (SNL) in rats; assay type: in vivo, rat; conditions: 30 mg/kg PO, post-SNL day 19, p<0.01 vs. vehicle
Method: Male Sprague-Dawley rats (Hsd:Sprague-Dawley®SD®, Harlan, Indianapolis, Ind., U.S.A.) weighing 223±2 g on Day 14 were housed three per cage. Animals had free access to food and water and were maintained on a 12:12 h light/dark schedule for the entire duration of the study. The animal colony was maintained at 21° C. and 60% humidity. All experiments were conducted in accordance with the International Association for the Study of Pain guidelines and were approved by the University of Minnesota Animal Care and Use Committee.
The Spinal Nerve Ligation (SNL) model was used to induce chronic neuropathic pain. […]
Baseline, post-injury and post-treatment values for non-noxious mechanical sensitivity were evaluated using 8 Semmes-Weinstein filaments (Stoelting, Wood Dale, Ill., USA) with varying stiffness (0.4, 0.7, 1.2, 2.0, 3.6, 5.5, 8.5, and 15 g) according to the up-down method. […] The mean and standard error of the mean (SEM) were determined for each paw in each treatment group. […]
Statistical analyses were conducted using Prism™ 4.01 (GraphPad, San Diego, Calif., USA). Mechanical hypersensitivity of the injured paw was determined by comparing pre-SNL to post-SNL values at Day 14. Data were analyzed using the Wilcoxon test. […] Drug effect was analyzed by comparing post-vehicle and post-drug values using the Friedman test followed by a Dunn's post hoc test. […]

human hepatocytes [4] = conditions: read-out: EC50, reduction of glucagon-induced glycogenolysis; cited from earlier work
healthy conscious rats = conditions: glucagon 10 microg/kg iv; cited from earlier work
db/db mice [5] = conditions: cited from earlier work
ob/ob mice = conditions: 30 mg/kg po, cited from earlier work
[6] = single and multiple dose escalation; cited from earlier work
rat hepatocytes = conditions: read-out: EC50, reduction of glucagon-induced glycogenolysis; cited from earlier work
ZDF rats = conditions: cited from earlier work
overnight fasted rats = conditions: 2.5 to 40 mg/kg 1 h before liquid meal 20 kcal/kg; effect at doses over 10 mg/kg; cited from earlier work
[7] = cited from earlier work
[8] = one oral suspension dose 2.5 to 1000 mg after overnight fast; cited from earlier work
Female ZDF rats = conditions: 100 mg/kg/day, 14 days; cited from earlier work
patients = conditions: first 6 h after dosing on day 14, versus day before first dose; cited from earlier work
goto-kakizaki (GK) rats = conditions: cited from earlier work
[9] = oral capsules 100, 200, 400 or 800 mg, 14 days; cited from earlier work
human hepatocytes [10] = conditions: human primary hepatocytes; read-out: EC50, inhibition of glucose production; cited from earlier work
cynomolgus monkeys = conditions: cited from earlier work
gluconeogenesis = conditions: rat hepatocytes, isolated rat kidneys, whole animal studies; cited from earlier work
[11] = chronic 21-day study, 10-week old ZDF rats
[12] = 50, 100, 200 or 400 mg qd, 14 days

## Cn1sc(=O)n(Cc2ccccc2)c1=O [NP-01139]
Tet/GSK-3-beta mice
  tau phosphorylation in the hippocampus: dose-dependent significant decrease
  clinical signs: not showing any apparent clinical signs

## COc1ccc(Cl)cc1C(=O)NCCc1ccc(S(=O)(=O)NC(=O)NC2CCCCC2)cc1 [glyburide]
[1]
  glucose tolerance: improved glucose tolerance
  insulin secretion: positive insulin secretory response

## CC1CC(=O)C(CC2C=CC=CC2)C1=O (centres unmarked) [NP-12]
Tet/GSK-3-beta mice
  tau phosphorylation in the hippocampus: dose-dependent significant decrease
  clinical signs: not showing any apparent clinical signs

## O=C(N[C@@H](Cc1ccc(F)cc1)C(=O)N1CCC(O)CC1)c1cc2cc(Cl)ncc2[nH]1 [PSN-357]
[2]
  t1/2: 4 h
db/db mice [3]
  hyperglycemia: prevented hyperglycemia
  increase in liver glycogen: 57%
  muscle glycogen, plasma insulin or alanine aminotransferase: no changes
Male Sprague-Dawley rats
  mechanical allodynia (von Frey, up-down method): reduced mechanical allodynia
Human hepatocytes [4]
  EC50: 1100 nM
Healthy conscious rats
  minimum effective dose, inhibition of glucagon-stimulated elevation of blood glucose: 3 mg/kg
db/db mice [5]; after 5 h
  heart and skeletal muscle glycogen: remained unaffected
  liver glycogen: increase in liver glycogen
db/db mice [5]; maintained after 5 h
  reduction of blood glucose: 35%
ob/ob mice; 90 to 210 minutes post administration
  blood glucose levels: reduced blood glucose levels
ob/ob mice; after 5 h
  increase in liver glycogen: 66%
[6]
  safety and tolerability: safe and well tolerated
Rat hepatocytes
  EC50: 1900 nM

## CCOC(=O)[C@H](C)NP(=O)(N[C@@H](C)C(=O)OCC)c1ccc(-c2nc(N)sc2CC(C)C)o1 [CS-917]
[1]
  glucose tolerance: improved glucose tolerance
  insulin secretion: No stimulation of insulin secretion
ZDF rats; [11]
  glucose lowering: effectively lowered glucose
  minimum efficacious dose, glucose lowering: 30 mg/kg
ZDF rats; freely feeding and 6-h fasting ZDF rats, early and advanced disease states
  oral efficacy: good oral efficacy
Overnight fasted rats
  AUC values of plasma glucose levels: significantly dose dependently decreased
[7]; 400 mg dose
  lactic acid AUC compared with placebo: increased
[7]; [12]
  absorption, metabolism, clearance: rapidly absorbed, extensively metabolized, rapidly cleared
  tolerability: well tolerated with no serious adverse events
[7]; other dose groups (50, 100, 200 mg)
  lactic acid profiles: indifferent from placebo
[8]
  tolerability: well tolerated with nausea seen at 400 mg and vomiting seen at 800 and 1000 mg
Female ZDF rats
  hyperglycemia (blood glucose): 166 ± 24 mg/dL
  insulin levels, blood lactate, liver glycogen and liver triglycerides: largely unaffected
  plasma triglycerides: tended to be lowered
  polydipsia: 15 ± 6.2 mL/day
patients
  blood glucose levels: lower blood glucose levels
goto-kakizaki (GK) rats; 40 mg/kg
  plasma glucagons: increased
goto-kakizaki (GK) rats; 5 to 40 mg/kg, 3 h after administration
  plasma glucose levels: dose-dependently decreased
goto-kakizaki (GK) rats; 20 and 40 mg/kg, 4 h after administration
  hepatic fructose 1,6-bisphosphate and fructose 6-phosphate: increased
[9]
  tolerability: well tolerated with no serious adverse events
Human hepatocytes [10]
  EC50: 300 nM
Cynomolgus monkeys; 60 mg/kg
  plasma glucagons levels: increased
Cynomolgus monkeys; 20 to 60 mg/kg, 3 h after administration
  insulin levels: dose-dependently decreased
gluconeogenesis
  gluconeogenesis: inhibit gluconeogenesis
